Measurements taken from patent publication US20180291070A1, “PEPTIDES, AND USES THEREOF” (priority 2015, published 2018).
Where two headings read alike, the source gives them in different places.

Experiments:
TNF-α = TNF-α secretion by LPS-stimulated THP-1 differentiated macrophages (Biolegend ELISA); format: cell-based, human; settings: for TNF-α secretion reduced vs. untreated cells: THP-1 differentiated macrophages treated 24 hrs. prior to LPS stimulation; for TNF-α DECREASE: THP-1 cells, 100, 10 or 1 ng/ml synthetic peptide 24 h, then 10 ng/ml LPS 5 h, vs untreated control
Description: TNF-α is secreted by macrophages in response to stimulation by endotoxins such as lipopolysaccharides (LPS). TNF-α is thought to be involved in systemic inflammation and dysregulation of TNF-α production is thought to be involved in many diseases. The Biolegend assay is a sandwich ELISA kit that is designed for the accurate quantitation of human TNF-α from cell culture supernatant, serum or plasma.
THP-1 monocytes were seeded in a 96 well plate at 10,000 cells per well in RPMI containing 10% fetal calf serum (FCS), 1% Pen/strep, 1% L-glutamine, 100 nM PMA and allowed to differentiated for 72 h prior to experimentation.
Following differentiation the cells were incubated with 100 ng/ml, 10 ng/ml or 1 ng/ml synthetic peptide for 24 h respectively.
Following treatment the cells were stimulated with 10 ng/ml LPS for 5 h and the quantity of TNF-α in the supernatant determined using the Biolegend assay ELISA kit.
Results were calculated as a percentage of the untreated control. An increase in optical density reading indicates greater quantity of TNF-α release into cell culture supernatant.
All experiments were prepared in duplicate on three plates (6 wells/conditions). Significance was calculated using Students t-test (*p<0.05 compared to control, **p<0.01 compared to control, *** p<0.001 compared to control).

[1] = test system: keratinocytes of the basal layer of the epidermis; test: Ki67 immunohistochemistry (mitotic index) in skin explants; format: cell-based, Human; settings: for number of mitotic cells compared to EGF: day 1
Description: (§1) Skin explants were prepared from abdominal plastic surgery. Some explants were delipidated with alcohol to obtain a dehydrated skin.
(§2) These explants were maintained in maintenance medium supplied by the provider Biopredic International for 5 days. Test items are applied twice per day with 5 μL per explant.
(§3) For each time of analysis (D1 and D5), histologies on delipidated explants, treated explants with test items, the DMSO 0.3% control and water control, are performed.
(§4) After receipt in the laboratory, each skin explant in the maintenance medium is delipidated with 5 μL alcohol during 3 hours.
(§5) After 3 hours, all skin explants are treated two per day with test items, and they are incubated at 37° C.+/−2° C., 5% CO2 for 1 day or 5 days.
Epithelial proliferation was analyzed by immunohistochemistry using anti-Ki67 antibody. […] Counting the number of labeled cells (keratinocytes of the basal layer of the epidermis) is performed and provides the total number of basal cells to calculate the % of labeled cells.
The results of the immunohistochemical analysis of Ki67 are reported in Table 5 and expressed as % of labelled at the basal layer of the epidermis. The Error! […] Immunohistochemical analysis of mitotic activity is shown in annex 4 with a reminder of the average for each analysed conditions.

[2] = test system: elastic fibers of the dermis; test: morphometric quantification of elastic fibers in skin explants; format: cell-based, Human; settings: for Morphometric quantification of elastic fibers in the middle dermis (%) / Morphometric quantification of elastic fibers in the superficial dermis (%): applied twice per day, 5 μL per explant
Description: as §1, §2, §3, §4, §5
The immunohistochemical staining intensity in the elastic fibers is evaluated using a semi-quantitative histological score.
The percentage area taken up by elastic fibers in the dermis was calculated in the dermis and the average superficial dermis. Results are presents in Table 4, FIG. 2 and FIG. 3.

A. baumannii ATCC 19606 = test: antibacterial activity testing in solid media (disk, Mueller-Hinton plates); format: cell-based, Acinetobacter baumannii; settings: Acinetobacter baumannii, 10 μL at 64 μg/mL on disk, read-out: Inhibition zone diameter (mm)
Description: (§6) Blank disks were placed in the plates and 10 μL of each compound (at 64 μg/mL—maximum concentration tested) added.
(§7) After incubation period results were registered and plates photographed.

E. coli ATCC 25922 = test: microbe, parasite or virus in culture; format: cell-based; settings: Escherichia coli, 10 μL at 64 μg/mL on disk, read-out: Inhibition zone diameter (mm)
Description: as §6, §7

MRSA ATCC 43300 = test: microbe, parasite or virus in culture; format: cell-based, Methicillin-Resistant Staphylococcus aureus; settings: Staphylococcus aureus, 10 μL at 64 μg/mL on disk, read-out: Inhibition zone diameter (mm)
Description: as §6, §7

[3] = test system: Human Dermal Fibroblasts (HDF); test: BrdU Cell Proliferation Assay; format: cell-based; settings: 5, 0.5 or 0.05 μg/ml synthetic peptide 24 h
Description: BrDu is incorporated into newly synthesised DNA strands of actively proliferating cells. Following partial denaturation of double stranded DNA, Brdu is detected immunochemically allowing the assessment of the population of cells which are synthesizing DNA. Human Dermal Fibroblasts (HDF—Sigma 10605a) were seeded in a 96 well plate at 10,000 cells per well in DMEM containing 10% fetal calf serum (FCS), 1% Pen/strep, 1% L-glutamine and allowed to adhere for 24 h. Following the initial 24 h incubation the cells were incubated with 5 μg/ml, 0.5 μg/ml or 0.05 μg/ml synthetic peptide for 24 h respectively. After 18 h incubation with synthetic peptides 20 μl BrDu reagent was added to each well. At 24 h incubation the cell were fixed and the amount of […] was measured using the BrdU Cell Proliferation Assay, all steps were carried out according to the manufacturer's instructions. Results were calculated as a percentage of the untreated control. An increase in optical density reading indicates greatER incorporation of BrDu and increase cell proliferation.

| Compound | % of Ki67 positive cells in the basal layer of the epidermis ([1]; D1) [%] | % of Ki67 positive cells in the basal layer of the epidermis ([1]; D5) [%] | Morphometric quantification of elastic fibers in the middle dermis (%) ([2]; D1) | Morphometric quantification of elastic fibers in the superficial dermis (%) ([2]; D1) | Morphometric quantification of elastic fibers in the middle dermis (%) ([2]; D5) | Morphometric quantification of elastic fibers in the superficial dermis (%) ([2]; D5) | further results |
| --- | --- | --- | --- | --- | --- | --- | --- |
| DEHQKIHQFR [0723.08] | 27.83 | 5.72 | 3.52 | 2.7 | 7.27 | 5.32 | TNF-α secretion reduced vs. untreated cells (TNF-α): 80%; number of mitotic cells compared to EGF [1]: increase |
| EDLRLVDLVIPVNGPGKFE [0723.06] | 31.97 | 5.04 | 4.54 | 3.8 | 8.67 | 4.03 | number of mitotic cells compared to EGF [1]: increase |
| O=C(O)c1cn(C2CC2)c2cc(N3CCNCC3)c(F)cc2c1=O [CIP, Ciprofloxacin] |  |  |  |  |  |  | zone of inhibition at 64 µg/mL (A. baumannii ATCC 19606; ATCC19606, Rep 1): 27 mm; zone of inhibition at 64 µg/mL (A. baumannii ATCC 19606; ATCC19606, Rep 2): 28 mm; zone of inhibition at 64 µg/mL (A. baumannii ATCC 19606; ATCC19606, Rep 3): 27 mm; zone of inhibition at 64 µg/mL (E. coli ATCC 25922; ATCC25922, Rep 1): 42 mm; zone of inhibition at 64 µg/mL (E. coli ATCC 25922; ATCC25922, Rep 2): 40 mm; zone of inhibition at 64 µg/mL (E. coli ATCC 25922; ATCC25922, Rep 3): 42 mm; zone of inhibition at 64 µg/mL (MRSA ATCC 43300; Rep 1): 27 mm; zone of inhibition at 64 µg/mL (MRSA ATCC 43300; Rep 2): 28 mm; zone of inhibition at 64 µg/mL (MRSA ATCC 43300; Rep 3): 29 mm |
| QQYGIAASPFLQSAA [0723.07] | 22.22 | 5.26 | 6.46 | 4 | 5.33 | 5.15 |  |
| RHGEWRPSY [0723.01] | 18.57 | 3.92 | 7.59 | 4.45 | 10.17 | 10.21 | elastic fibers in the middle dermis compared to the water control ([2]; D5): increase; elastic fibers in the superficial dermis compared to control water ([2]; D5): increase by twice |
| RPYYSNAPQEIF [0723.04] | 14.97 | 11.36 | 5.22 | 3.28 | 9 | 8.94 |  |
| 93 (YIIQGRGITGPTF) [compound 93] |  |  |  |  |  |  | INCREASE IN PROLIFERATION [3]: 26%; TNF-α DECREASE (TNF-α): 14% |
| EGF (Epidermal Growth Factor): Epidermal Growth Factor, 10 ng/mL, comparison condition in the skin explant tests [reference compound] | 25.11 | 4.2 | 5.68 | 3.64 | 6.61 | 5.61 |  |
| HPVAITASSNLNLLGFG [0723.02] | 19.61 | 6.73 | 11.75 | 6.09 | 9.08 | 7.59 | TNF-α secretion reduced vs. untreated cells (TNF-α): 80%; elastic fibers in the middle dermis compared to the water control ([2]; D5): increase; elastic fibers in the middle dermis compared to control water ([2]; day 1): increase doubled |
| VLLEQQEQEPQH [0723.05] | 9.48 | 3.08 | 8.8 | 6.34 | 6.61 | 6.26 |  |
| HGEWRPSYEKQEDEE [0723.03] | 22.01 | 10.04 | 4.9 | 3 | 9 | 11.68 | elastic fibers in the middle dermis compared to the water control ([2]; D5): increase; elastic fibers in the superficial dermis compared to control water ([2]; D5): increase by twice |
| 85 (SIFRALPTDVLANAYRISREE) [compound 85] |  |  |  |  |  |  | INCREASE IN PROLIFERATION [3]: 35%; TNF-α DECREASE (TNF-α): 80% |
